Experiments:
Golden Delicious apples [1] = assay: Golden Delicious apple foliar calcium study: bitterpit and culls; type: in vivo, apple trees; settings: apples harvested and stored; 4 foliar applications, 14 day interval
Method: A study was conducted with Golden Delicious apples. […] As a secondary aspect of this study, the leaves and fruit were analyzed to see if the source of calcium could affect calcium retention in the plant tissues.
(§1) A block of mature apple trees was divided into 4 sections.
(§2) The amino acids in the calcium chelate were glycine, valine, leucine, tryptophan, isoleucine, lysine, aspartic acid, alanine, and arginine. All treatments were made on the same day. The applications began with the first cover spray and continued from there every 14 days for 4 applications. The leaves were collected from a fruiting spur located at a 45 degree angle from the spray rig and into the tree canopy 3 feet. Samples were collected and sent for analysis. Apples were also collected on the same day from the same location as the leaves. They also were sent for analysis of the fruit flesh. The orchard was then harvested and placed in storage.
It is noted that absorption of calcium into the plant from a foliar spray is only part of what the plant needs. The calcium source must be able to be retained by the plant after absorption and then be translocated and enter into metabolic activities as needed.

Golden Delicious apples [2] = assay: Golden Delicious apple foliar calcium study: Ca analysis of leaves and fruit; type: in vivo, apple trees; settings: 4 foliar applications, 14 day interval; for Apple Ca: apple fruit flesh; for Leaf Ca: apple leaves from fruiting spur
Method: A study was conducted with Golden Delicious apples. Calcium is effective in reducing bitterpit in apples, and the present study was initially designed to determine which source of calcium, described below, had the greatest impact on reducing bitterpit. As a secondary aspect of this study, the leaves and fruit were analyzed to see if the source of calcium could affect calcium retention in the plant tissues.
as §1, §2

corn (maze) plants [3] = assay: Greenhouse foliar study in corn: plant growth as dry matter; type: in vivo; settings: 400 ppm Fe foliar spray twice
Method: A greenhouse foliar study was conducted in which 12 inch corn (maze) plants were sprayed with a solution that contained 400 ppm Fe as FeSO4, Fe EDTA, or Fe high nitrogen amino acid chelate with and without the addition of urea and ammonium nitrate. The high nitrogen amino acids were lysine, histidine, cysteine, tryptophan, aspartic acid, alanine, and glycine. The urea and ammonium nitrate were formulated as an admixture and not reacted to the Fe sources. […] These same treatments were repeated one week later. Three weeks following the last spray, all of the plants were harvested and the roots separated from the stalks. Each sample was dried for 24 hours at 75° C., then weighed for dry matter, and the Fe concentrations determined by plasma emission spectrophotometry. […] Greater Fe retention also results in greater plant growth as measured by dry matter.

corn (maze) plants [4] = assay: Greenhouse foliar study in corn: Fe concentration by plasma emission spectrophotometry; type: in vivo; settings: 400 ppm Fe foliar spray twice, harvest three weeks after last spray
Method: A greenhouse foliar study was conducted in which 12 inch corn (maze) plants were sprayed with a solution that contained 400 ppm Fe as FeSO4, Fe EDTA, or Fe high nitrogen amino acid chelate with and without the addition of urea and ammonium nitrate. The high nitrogen amino acids were lysine, histidine, cysteine, tryptophan, aspartic acid, alanine, and glycine. The urea and ammonium nitrate were formulated as an admixture and not reacted to the Fe sources. […] These same treatments were repeated one week later. Three weeks following the last spray, all of the plants were harvested and the roots separated from the stalks. Each sample was dried for 24 hours at 75° C., then weighed for dry matter, and the Fe concentrations determined by plasma emission spectrophotometry.

oranges = assay: Orange orchard foliar zinc study: fruit production and quality; type: in vivo, orange trees; settings: equivalent zinc
Method: A study was conducted in oranges in which the application of zinc nitrate was compared to a zinc mixed ligand amino acid chelate. The mixed ligands included arginine, lysine, histidine, leucine, tryptophan, aspartic acid, alanine, and glycine. Specifically, a 12 year old orchard containing 193 trees per acre was evaluated. The trees were divided into 2 groups. One group was sprayed with a zinc nitrate treatment, and the other group was sprayed with a zinc mixed ligand amino acid chelate treatment. The treatments were applied by a sprayer that sprays 535 gallons of liquid per acre.
Each tree was sprayed twice during the study, a first time at 90% petal drop and a second time 14 days later. The zinc nitrate was applied at 49 ounces per acre and the amino acid chelate at 66 ounces per acre. The amount of zinc applied to each group was equivalent.
Ten trees from each group were selected at random and the oranges picked from those trees by hand.

[5] = 0 ppm N from urea and ammonium nitrate
[6] = 500 ppm N from urea and ammonium nitrate
[7] = 1000 ppm N urea and ammonium nitrate

SMILES	percent of bitterpit in the culls (Golden Delicious apples [1])	percent of culls (Golden Delicious apples [1])	Apple Ca (Golden Delicious apples [2])	Leaf Ca (Golden Delicious apples [2])	Dry Matter (corn (maze) plants [3]; [5])	Dry Matter (corn (maze) plants [3]; [6])	Dry Matter (corn (maze) plants [3]; [7])	Fe in Leaves (corn (maze) plants [4]; [5])	Fe in Leaves (corn (maze) plants [4]; [6])	Fe in Leaves (corn (maze) plants [4]; [7])	other results
O=[N+]([O-])[O-].O=[N+]([O-])[O-].[Ca+2] [Ca Nitrate, calcium nitrate]	20%	34%	190 ppm	2.37%							
O=S(=O)([O-])[O-].[Fe+2] [FeSO4]					13.23 g/pot	15.73 g/pot	14.82 g/pot	48 ppm^a Fe ppm Fe	53 ppm^a Fe ppm Fe	63 ppm^a Fe ppm Fe	
[Ca+2].[Cl-].[Cl-] [Ca Chloride, calcium chloride]	26%	36%	138 ppm	1.70%							
O=[N+]([O-])[O-].O=[N+]([O-])[O-].[Zn+2] [Zn Nitrate, zinc nitrate]											% Acid (oranges; oranges, sprayed twice): 1.05%; % Brix (oranges; oranges, sprayed twice): 12.2%; % Juice (oranges; oranges, sprayed twice): 57.2%; Weight of oranges/tree (oranges; sprayed twice (90% petal drop and 14 days later), ten trees per group): 95.11 lbs
O=C([O-])CN(CCN(CC(=O)[O-])CC(=O)[O-])CC(=O)[O-].[Fe+3] [Fe EDTA]					14.12 g/pot	15.08 g/pot	11.24 g/pot	47 ppm^a Fe ppm Fe	56 ppm^a Fe ppm Fe	69 ppm^a Fe ppm Fe	
[O]=[Ca] [Ca Oxide, calcium oxide]	25%	34%	148 ppm	2.15%							

— patent US20080194407A1, “High nitrogen containing chelate compositions suitable for plant delivery” (priority 2007, published 2008)
